Laboratory results reported in the NIST ThermoML archive (doi:10.1021/je050050p).

Assay: xn = mol fraction of the nth substance listed
Settings: Liquid, Vibrating tube method

CN(C)C=O [dimethylformamide] + O=C=O
Settings	mass density [kg/m3]
323.1 K, 12012 kPa, x2 = 0.4502	948.99
323.1 K, 12998 kPa, x2 = 0.4068	949.23
323.1 K, 13022 kPa, x2 = 0.4502	950.22
323.1 K, 13979 kPa, x2 = 0.4068	950.27
323.1 K, 14010 kPa, x2 = 0.4502	951.35
323.1 K, 15004 kPa, x2 = 0.4068	951.37
323.1 K, 15007 kPa, x2 = 0.4502	952.52
323.1 K, 16001 kPa, x2 = 0.4068	952.41
323.1 K, 16010 kPa, x2 = 0.4502	953.67
323.1 K, 16989 kPa, x2 = 0.4068	953.45
323.1 K, 17008 kPa, x2 = 0.4502	954.76
323.1 K, 18013 kPa, x2 = 0.4502	955.9
323.1 K, 18017 kPa, x2 = 0.4068	954.51
323.1 K, 18998 kPa, x2 = 0.4068	955.51
323.1 K, 19001 kPa, x2 = 0.4502	956.99
323.1 K, 19996 kPa, x2 = 0.4502	958.07
323.1 K, 20005 kPa, x2 = 0.4068	956.52
323.1 K, 20986 kPa, x2 = 0.4068	957.5
323.1 K, 21010 kPa, x2 = 0.4502	959.2
323.1 K, 22004 kPa, x2 = 0.4502	960.27
323.1 K, 22021 kPa, x2 = 0.4068	958.56
323.1 K, 22997 kPa, x2 = 0.4502	961.32
323.1 K, 22998 kPa, x2 = 0.4068	959.49
323.1 K, 23987 kPa, x2 = 0.4068	960.47
323.1 K, 23995 kPa, x2 = 0.4502	962.39
323.1 K, 25019 kPa, x2 = 0.4502	963.43
323.1 K, 25057 kPa, x2 = 0.4068	961.5
323.15 K, 5022 kPa, x2 = 0.2876	937.32
323.15 K, 6019 kPa, x2 = 0.2876	938.29
323.15 K, 7007 kPa, x2 = 0.2876	939.23
323.15 K, 8008 kPa, x2 = 0.2876	940.16
323.15 K, 9023 kPa, x2 = 0.2876	941.14
323.15 K, 10001 kPa, x2 = 0.2876	942.04
323.15 K, 11006 kPa, x2 = 0.2876	942.98
323.15 K, 12003 kPa, x2 = 0.2876	943.9
323.15 K, 13004 kPa, x2 = 0.2876	944.81
323.15 K, 14005 kPa, x2 = 0.2876	945.73
323.15 K, 14999 kPa, x2 = 0.2876	946.61
323.15 K, 15994 kPa, x2 = 0.2876	947.48
323.15 K, 17022 kPa, x2 = 0.2876	948.41
323.15 K, 17996 kPa, x2 = 0.2876	949.25
323.15 K, 19004 kPa, x2 = 0.2876	950.13
323.15 K, 20021 kPa, x2 = 0.2876	950.99
323.15 K, 21018 kPa, x2 = 0.2876	951.84
323.15 K, 22030 kPa, x2 = 0.2876	952.68
323.15 K, 23007 kPa, x2 = 0.2876	953.51
323.15 K, 24019 kPa, x2 = 0.2876	954.35
323.15 K, 25012 kPa, x2 = 0.2876	955.16
332.96 K, 10005 kPa, x2 = 0.6235	907.82
332.96 K, 10991 kPa, x2 = 0.6235	910.93
332.96 K, 12056 kPa, x2 = 0.6235	913.98
332.96 K, 13000 kPa, x2 = 0.6235	916.59
332.96 K, 14042 kPa, x2 = 0.6235	919.37
332.96 K, 15010 kPa, x2 = 0.6235	921.91
332.96 K, 15997 kPa, x2 = 0.6235	924.4
332.96 K, 17030 kPa, x2 = 0.6235	926.91
332.96 K, 18038 kPa, x2 = 0.6235	929.31
332.96 K, 19028 kPa, x2 = 0.6235	931.63
332.96 K, 20027 kPa, x2 = 0.6235	933.85
332.96 K, 21009 kPa, x2 = 0.6235	936.05
332.96 K, 22009 kPa, x2 = 0.6235	938.17
332.96 K, 23042 kPa, x2 = 0.6235	940.35
332.96 K, 24041 kPa, x2 = 0.6235	942.44
332.96 K, 25008 kPa, x2 = 0.6235	944.38
332.97 K, 13046 kPa, x2 = 0.8091	858.28
332.97 K, 14016 kPa, x2 = 0.8091	863.75
332.97 K, 15002 kPa, x2 = 0.8091	869.06
332.97 K, 16027 kPa, x2 = 0.8091	874.28
332.97 K, 17017 kPa, x2 = 0.8091	879.06
332.97 K, 18042 kPa, x2 = 0.8091	883.74
332.97 K, 19003 kPa, x2 = 0.8091	887.97
332.97 K, 20021 kPa, x2 = 0.8091	892.23
332.97 K, 21029 kPa, x2 = 0.8091	896.31
332.97 K, 22019 kPa, x2 = 0.8091	900.16
332.97 K, 23004 kPa, x2 = 0.8091	903.83
332.97 K, 24041 kPa, x2 = 0.8091	907.6
332.97 K, 24998 kPa, x2 = 0.8091	910.97
332.98 K, 8015 kPa, x2 = 0.4268	929.54
332.98 K, 9023 kPa, x2 = 0.4268	930.86
332.98 K, 9996 kPa, x2 = 0.4268	932.09
332.98 K, 11004 kPa, x2 = 0.4268	933.37
332.98 K, 12004 kPa, x2 = 0.4268	934.65
332.98 K, 13005 kPa, x2 = 0.4268	935.88
332.98 K, 13019 kPa, x2 = 0.9311	744.38
